Test results: article PMC10976095 (Vaccines, 2024)
Where a SMILES comes first, the peptide text is derived from it.

Tests used:
Assay in all cases: biochemical
Format in all cases: binding
HLA-A*03:01 = HLA-A*03:01 (Homo sapiens, UniProt P04439)
HLA-A*11:01 = HLA-A*11:01 (Homo sapiens, UniProt P04439, A114D/D185E/E176A/F33Y/L180Q/S129P/T187R)
HLA-A*68:01 = HLA-A*68:01 (Homo sapiens, UniProt P04439, A269V/D185E/E176V/E277Q/E87N/F33Y/G231S/I121M/I166T/I218V/L180W/L300P/L318F/N151K/P208A/P217A/Q86R/R169H/T345S)
HLA-A*30:01 = HLA-A*30:01 (Homo sapiens, UniProt P04439, D140H/D185E/E176W/F33S/G80R/H175R/K168Q/R138E/R41S)
HLA-A*31:01 = HLA-A*31:01 (Homo sapiens, UniProt P04439, A270S/D185E/E176V/E277Q/F33T/G231S/G80R/H175R/I121M/I218V/I322F/K168Q/L300P/L318F/M331R/P217A/Q94H/R138Q/T323A/T345S/T97I/V358M)
HLA-B*07:02 = HLA-B*07:02 (Homo sapiens, UniProt P01889)
HLA-A*26:01 = HLA-A*26:01 (Homo sapiens, UniProt P04439, A114D/A173T/A270S/D101N/D185E/E277Q/E87N/F33Y/G231S/I121R/I218V/K168Q/L180W/L300P/L318F/P208A/P217A/Q86R/Q94H/R138Q/S129P/T187R/T323A/T345S/V100A/V358M)
HLA-A*68:02 = HLA-A*68:02 (Homo sapiens, UniProt P04439, A269V/D140Y/D185E/E176V/E277Q/E87N/F33Y/G231S/I121R/I166T/I218V/L180W/L300P/L318F/N151K/P208A/P217A/Q86R/R138H/R169H/S129P/T345S/V36M)

## CC(C)C[C@H](NC(=O)[C@H](CO)NC(=O)[C@H](CS)NC(=O)[C@H](Cc1ccccc1)NC(=O)[C@H](CO)NC(=O)[C@@H](N)CC(C)C)C(=O)N[C@@H](Cc1ccccc1)C(=O)N[C@@H](CC(C)C)C(=O)N1CCC[C@H]1C(=O)N[C@@H](CCCCN)C(=O)O (H-LSFCSLFLPK-OH)
HLA-A*03:01
  IC50: 4.3 nM
HLA-A*11:01
  IC50: 0.68 nM
HLA-A*68:01
  IC50: 1 nM
HLA-A*30:01
  IC50: 238 nM
HLA-A*31:01
  IC50: 686 nM

## CC(C)C[C@H](NC(=O)[C@H](C)NC(=O)[C@H](CCC(N)=O)NC(=O)[C@H](CCCCN)NC(=O)[C@H](Cc1ccccc1)NC(=O)[C@H](CO)NC(=O)[C@H](C)NC(=O)[C@@H](NC(=O)[C@@H](N)CCC(=O)O)C(C)C)C(=O)O [EVASFKQAL] (H-EVASFKQAL-OH)
HLA-B*07:02
  IC50: 250 nM
HLA-A*26:01
  IC50: 86 nM
HLA-A*68:02
  IC50: 2.7 nM
